Test results taken from the NIST ThermoML archive (doi:10.1016/j.fluid.2008.04.021).
± gives the expanded uncertainty stated by the source.

Assay: excess molar enthalpy (molar enthalpy of mixing); xn = mol fraction of the nth substance listed
Conditions: Liquid

SMILES | excess molar enthalpy (298.15 K, x2 = 0) | excess molar enthalpy (298.15 K, x2 = 0.05) | excess molar enthalpy (298.15 K, x2 = 0.1) | excess molar enthalpy (298.15 K, x2 = 0.15) | excess molar enthalpy (298.15 K, x2 = 0.2) | excess molar enthalpy (298.15 K, x2 = 0.25) | excess molar enthalpy (298.15 K, x2 = 0.3) | excess molar enthalpy (298.15 K, x2 = 0.35) | excess molar enthalpy (298.15 K, x2 = 0.4) | excess molar enthalpy (298.15 K, x2 = 0.45) | excess molar enthalpy (298.15 K, x2 = 0.5) | excess molar enthalpy (298.15 K, x2 = 0.55) | excess molar enthalpy (298.15 K, x2 = 0.6) | excess molar enthalpy (298.15 K, x2 = 0.65) | excess molar enthalpy (298.15 K, x2 = 0.7) | excess molar enthalpy (298.15 K, x2 = 0.75) | excess molar enthalpy (298.15 K, x2 = 0.8) | excess molar enthalpy (298.15 K, x2 = 0.85) | excess molar enthalpy (298.15 K, x2 = 0.9) | excess molar enthalpy (298.15 K, x1 = 1) | further results
CCCCOCC [butyl ethyl ether] + FC(F)(F)C(F)(F)C(F)(F)C(F)(F)C(F)(F)C(F)(F)F | 0 ± 0.000478 kcal/mol | 0.146 ± 0.00335 kcal/mol | 0.259 ± 0.00574 kcal/mol | 0.345 ± 0.00741 kcal/mol | 0.41 ± 0.0086 kcal/mol | 0.459 ± 0.00956 kcal/mol | 0.494 ± 0.0103 kcal/mol | 0.519 ± 0.0108 kcal/mol | 0.536 ± 0.0112 kcal/mol | 0.546 ± 0.0115 kcal/mol | 0.549 ± 0.0115 kcal/mol | 0.546 ± 0.0115 kcal/mol | 0.535 ± 0.0112 kcal/mol | 0.517 ± 0.0108 kcal/mol | 0.489 ± 0.0103 kcal/mol | 0.449 ± 0.00956 kcal/mol | 0.396 ± 0.00837 kcal/mol | 0.327 ± 0.00693 kcal/mol | 0.24 ± 0.00526 kcal/mol | – | excess molar enthalpy (298.15 K, x2 = 0.95): 0.132 ± 0.00311 kcal/mol
CCCCOC [butyl methyl ether] + FC(F)(F)C(F)(F)C(F)(F)C(F)(F)C(F)(F)C(F)(F)F | 0 ± 0.000478 kcal/mol | 0.148 ± 0.00335 kcal/mol | 0.26 ± 0.00574 kcal/mol | 0.344 ± 0.00741 kcal/mol | 0.406 ± 0.0086 kcal/mol | 0.452 ± 0.00956 kcal/mol | 0.486 ± 0.0103 kcal/mol | 0.51 ± 0.0108 kcal/mol | 0.526 ± 0.011 kcal/mol | 0.535 ± 0.0112 kcal/mol | 0.539 ± 0.0112 kcal/mol | 0.535 ± 0.0112 kcal/mol | 0.524 ± 0.011 kcal/mol | 0.505 ± 0.0105 kcal/mol | 0.475 ± 0.01 kcal/mol | 0.434 ± 0.00908 kcal/mol | 0.379 ± 0.00813 kcal/mol | 0.31 ± 0.00669 kcal/mol | 0.224 ± 0.00502 kcal/mol | – | excess molar enthalpy (298.15 K, x2 = 0.95): 0.121 ± 0.00287 kcal/mol
CCOCC [diethyl ether] + FC(F)(F)C(F)(F)C(F)(F)C(F)(F)C(F)(F)C(F)(F)F | – | – | – | – | – | – | – | – | – | – | – | – | – | – | – | – | – | – | – | – | excess molar enthalpy (293.15 K, x2 = 0): 0 ± 0.000478 kcal/mol; excess molar enthalpy (293.15 K, x2 = 0.05): 0.148 ± 0.00335 kcal/mol; excess molar enthalpy (293.15 K, x2 = 0.1): 0.26 ± 0.00574 kcal/mol; excess molar enthalpy (293.15 K, x2 = 0.15): 0.344 ± 0.00741 kcal/mol; excess molar enthalpy (293.15 K, x2 = 0.2): 0.408 ± 0.0086 kcal/mol; excess molar enthalpy (293.15 K, x2 = 0.25): 0.455 ± 0.00956 kcal/mol; excess molar enthalpy (293.15 K, x2 = 0.3): 0.491 ± 0.0103 kcal/mol; excess molar enthalpy (293.15 K, x2 = 0.35): 0.517 ± 0.0108 kcal/mol; excess molar enthalpy (293.15 K, x2 = 0.4): 0.535 ± 0.0112 kcal/mol; excess molar enthalpy (293.15 K, x2 = 0.45): 0.547 ± 0.0115 kcal/mol; excess molar enthalpy (293.15 K, x2 = 0.5): 0.551 ± 0.0115 kcal/mol; excess molar enthalpy (293.15 K, x2 = 0.55): 0.546 ± 0.0115 kcal/mol; excess molar enthalpy (293.15 K, x2 = 0.6): 0.533 ± 0.0112 kcal/mol; excess molar enthalpy (293.15 K, x2 = 0.65): 0.51 ± 0.0108 kcal/mol; excess molar enthalpy (293.15 K, x2 = 0.7): 0.475 ± 0.01 kcal/mol; excess molar enthalpy (293.15 K, x2 = 0.75): 0.427 ± 0.00908 kcal/mol; excess molar enthalpy (293.15 K, x2 = 0.8): 0.366 ± 0.00789 kcal/mol; excess molar enthalpy (293.15 K, x2 = 0.85): 0.292 ± 0.00621 kcal/mol; excess molar enthalpy (293.15 K, x2 = 0.9): 0.205 ± 0.00454 kcal/mol; excess molar enthalpy (293.15 K, x2 = 0.95): 0.107 ± 0.00263 kcal/mol
CCCOCCC [dipropyl ether] + FC(F)(F)C(F)(F)C(F)(F)C(F)(F)C(F)(F)C(F)(F)F | 0 ± 0.000478 kcal/mol | 0.137 ± 0.00311 kcal/mol | 0.249 ± 0.0055 kcal/mol | 0.34 ± 0.00717 kcal/mol | 0.413 ± 0.00884 kcal/mol | 0.47 ± 0.0098 kcal/mol | 0.514 ± 0.0108 kcal/mol | 0.547 ± 0.0115 kcal/mol | 0.569 ± 0.012 kcal/mol | 0.582 ± 0.0122 kcal/mol | 0.586 ± 0.0122 kcal/mol | 0.582 ± 0.0122 kcal/mol | 0.569 ± 0.012 kcal/mol | 0.546 ± 0.0115 kcal/mol | 0.514 ± 0.0108 kcal/mol | 0.469 ± 0.0098 kcal/mol | 0.411 ± 0.0086 kcal/mol | 0.338 ± 0.00717 kcal/mol | 0.247 ± 0.0055 kcal/mol | – | excess molar enthalpy (298.15 K, x2 = 0.95): 0.135 ± 0.00311 kcal/mol
FC(F)(F)C(F)(F)C(F)(F)C(F)(F)C(F)(F)C(F)(F)F [perfluorohexane] + CCCCOC | – | – | – | – | – | – | – | – | – | – | – | – | – | – | – | – | – | – | – | 0 ± 0.000478 kcal/mol | –
FC(F)(F)C(F)(F)C(F)(F)C(F)(F)C(F)(F)C(F)(F)F [perfluorohexane] + CCCCOCC | – | – | – | – | – | – | – | – | – | – | – | – | – | – | – | – | – | – | – | 0 ± 0.000478 kcal/mol | –
FC(F)(F)C(F)(F)C(F)(F)C(F)(F)C(F)(F)C(F)(F)F [perfluorohexane] + CCCCOCCCC | – | – | – | – | – | – | – | – | – | – | – | – | – | – | – | – | – | – | – | 0 ± 0.000478 kcal/mol | excess molar enthalpy (298.15 K, x1 = 0.05): 0.144 ± 0.00335 kcal/mol; excess molar enthalpy (298.15 K, x1 = 0.1): 0.255 ± 0.0055 kcal/mol; excess molar enthalpy (298.15 K, x1 = 0.15): 0.338 ± 0.00717 kcal/mol; excess molar enthalpy (298.15 K, x1 = 0.2): 0.399 ± 0.00837 kcal/mol; excess molar enthalpy (298.15 K, x1 = 0.25): 0.443 ± 0.00932 kcal/mol; excess molar enthalpy (298.15 K, x1 = 0.3): 0.473 ± 0.01 kcal/mol; excess molar enthalpy (298.15 K, x1 = 0.35): 0.494 ± 0.0103 kcal/mol; excess molar enthalpy (298.15 K, x1 = 0.4): 0.506 ± 0.0105 kcal/mol; excess molar enthalpy (298.15 K, x1 = 0.45): 0.513 ± 0.0108 kcal/mol; excess molar enthalpy (298.15 K, x1 = 0.5): 0.515 ± 0.0108 kcal/mol; excess molar enthalpy (298.15 K, x1 = 0.55): 0.513 ± 0.0108 kcal/mol; excess molar enthalpy (298.15 K, x1 = 0.6): 0.506 ± 0.0105 kcal/mol; excess molar enthalpy (298.15 K, x1 = 0.65): 0.494 ± 0.0103 kcal/mol; excess molar enthalpy (298.15 K, x1 = 0.7): 0.474 ± 0.01 kcal/mol; excess molar enthalpy (298.15 K, x1 = 0.75): 0.444 ± 0.00932 kcal/mol; excess molar enthalpy (298.15 K, x1 = 0.8): 0.401 ± 0.0086 kcal/mol; excess molar enthalpy (298.15 K, x1 = 0.85): 0.34 ± 0.00717 kcal/mol; excess molar enthalpy (298.15 K, x1 = 0.9): 0.257 ± 0.0055 kcal/mol; excess molar enthalpy (298.15 K, x1 = 0.95): 0.146 ± 0.00335 kcal/mol
FC(F)(F)C(F)(F)C(F)(F)C(F)(F)C(F)(F)C(F)(F)F [perfluorohexane] + CCCOCCC | – | – | – | – | – | – | – | – | – | – | – | – | – | – | – | – | – | – | – | 0 ± 0.000478 kcal/mol | –
FC(F)(F)C(F)(F)C(F)(F)C(F)(F)C(F)(F)C(F)(F)F [perfluorohexane] + CCOCC | – | – | – | – | – | – | – | – | – | – | – | – | – | – | – | – | – | – | – | – | excess molar enthalpy (293.15 K, x1 = 1): 0 ± 0.000478 kcal/mol
